This is an account of results in paper PMC10087775, “ProX from marine Synechococcus spp. show a sole preference for glycine‐betaine with differential affinity between ecotypes” (Environmental Microbiology, 2022).

In one experiment the target is ChoX. More on the design: method as in Oswald et al. ([2008]). The settings on record: ref Oswald et al. ([2008]); read-out: Affinity (K D); cited from earlier work.
A further experiment concerns the target TmoX. More on the design: method as in Li et al. ([2015]). Conditions: ref Li et al. ([2015]); read-out: Affinity (K D); cited from earlier work.
The subject of a further experiment is MITS9220_ProX. The experiment can be described thus: DSF thermal melt ligand screening of MITS9220_ProX. It is filed as binding, Synechococcus sp. MITS9220. Conditions: ligand tested independently by DSF. The protocol:
(§1) Commercially available libraries of small molecules were tested as potential binding partners to ProX by recording differential scanning fluorimetry (DSF) responses over a thermal gradient (Neisen et al., [2007]). SYPRO Orange dye (Invitrogen) was used to monitor fold integrity in discrete protein mixtures by measuring fluorescence at 590 nm following excitation at 485 nm using a Stratagene MX3000P q‐PCR instrument. Compounds tested in 96‐well blocks incorporated common protein stabilizing ligands (HR2‐096 Silver Bullets, Hampton Research) and single‐molecule osmolyte sources (MicroPlate PM9, Biolog Inc). The concentration of these compounds following reaction set‐up was ~4 μM, and, therefore below the concentration required to effect complete saturation of the binding pocket. Each condition was tested in triplicate, with each plate containing a control well with no additive.
(§2) Thermal melt curves were analysed using the analysis template provided (Neisen et al., [2007]) and fitting of Boltzmann distribution (GraphPad Prism) for the determination of mid‐point thermal melt temperatures (Bai et al., [2019]). The only condition (Silver Bullets well #D8) leading to a significant increase (>3°C) in melting temperature was deconvoluted to identify the single component leading to such a change and repeated in triplicate.
Background: In DSF a fluorescence change marks the thermal transition of the protein.

The target of another experiment is (UniProt A0A7G8ITR3). The experiment in a line: Modified DSF (isothermal analysis, FoldAffinity) binding affinity of MITS9220_ProX. More on the design: species or system Synechococcus sp. MITS9220. Conditions: read-out: Affinity (K D). As to the method:
(§3) The DSF assay was modified to elucidate binding kinetics, following a published protocol specifically outlining this application, and validated using SBPs (Bai et al., [2019]). Briefly, a range of protein concentrations were tested (2–20 μM) to determine the optimal signal‐to‐noise ratio while requiring a low protein concentration (5 μM). Protein solutions were prepared in Buffer A at a concentration of 10 μM, with a 50× concentration of SYPRO Orange dye. Working stocks of ligands were prepared independently (in Buffer A) at the following concentrations: 0.4, 0.8, 1.6, 3.2, 6.4, 12.8, 25, 50, 100, 200, 2000 μM. ProX protein and ligands (10 μl each) were both delivered in triplicate into a 96‐well plate (final volume 20 μl). Plates were centrifuged in a benchtop plate spinner (1 min) to ensure sample homogeneity before recording fluorescence data across the thermal ramp as previously described.
(§4) Data were processed using two independent software packages: the provided Python package (Bai et al., [2019]) and the web‐based FoldAffinity tool (Niebling et al., [2021]) to ensure their consistency and determine affinity values. The final values reported were taken from FoldAffinity. Processed results were then plotted (GraphPad Prism) to generate publication‐quality figures of the processed data.
(§5) Purified ProX samples were subjected to binding kinetics determination using a modified DSF approach (Bai et al., [2019]; Niebling et al., [2021]). This approach was selected due to aberrant noise in calorimetric and tryptophan quenching experiments, attributed to possible dimer‐monomer interconversion co‐occurring with ligand‐binding events. […] This is related to the proportion of folded versus unfolded protein at a single temperature (isothermal analysis) using a selected temperature value (T sel ) slightly above the T M previously determined. Using the FoldAffinity tool (Niebling et al., [2021]), non‐linear regression and curve fitting of the processed thermal melt curves allowed the determination of ligand dissociation constants (K D ) for each protein and ligand partner.

Another experiment deals with OpuAC. More on the design: method as in Wolters et al. ([2010]). Conditions: ref Wolters et al. ([2010]), read-out: Affinity (K D), cited from earlier work.
For experiment [1], the target named is T1, WH8102_ProX (Parasynechococcus marenigrum, UniProt Q7U4Z5). The experiment can be described thus: Modified DSF (isothermal analysis, FoldAffinity) binding affinity of WH8102_ProX. More on the design: species or system Synechococcus sp. WH8102. Conditions: for Kd: read-out: Affinity (K D). As to the method: as §3, §4, §5
T1 sequence (Q7U4Z5 entry or part of it): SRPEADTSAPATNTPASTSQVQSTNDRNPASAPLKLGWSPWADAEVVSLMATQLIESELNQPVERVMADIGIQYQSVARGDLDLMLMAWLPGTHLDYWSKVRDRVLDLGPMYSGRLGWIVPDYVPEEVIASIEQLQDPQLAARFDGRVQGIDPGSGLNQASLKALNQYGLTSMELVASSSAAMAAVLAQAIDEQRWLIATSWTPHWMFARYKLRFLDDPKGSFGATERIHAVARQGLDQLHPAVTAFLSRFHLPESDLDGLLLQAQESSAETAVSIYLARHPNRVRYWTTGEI
In experiment [2] the target is ProX. More on the design: method as in Schiefner, Holtmann, et al. ([2004]). Conditions: ref Schiefner, Holtmann, et al. ([2004]); read-out: Affinity (K D); cited from earlier work.
For experiment [3], the target named is ProX. More on the design: method as in Schiefner, Breed, et al. ([2004]). The settings on record: ref Schiefner, Breed, et al. ([2004]); read-out: Affinity (K D); cited from earlier work.
For experiment [4], the target named is T1, WH8102_ProX. The experiment can be described thus: DSF thermal melt ligand screening of WH8102_ProX. In kind it is binding, Synechococcus sp. WH8102. Conditions: ligand tested independently by DSF. As to the method: as §1, §2
The mark [5] stands for this setting: 0.50 M NaCl (Buffer A), Tsel 62°C.

Like-named read-outs stand apart in the source and are kept apart here. A value given as a limit tells only on which side of the number the result lay.

Sequence of (UniProt A0A7G8ITR3) (A0A7G8ITR3 40-334 limits assumed): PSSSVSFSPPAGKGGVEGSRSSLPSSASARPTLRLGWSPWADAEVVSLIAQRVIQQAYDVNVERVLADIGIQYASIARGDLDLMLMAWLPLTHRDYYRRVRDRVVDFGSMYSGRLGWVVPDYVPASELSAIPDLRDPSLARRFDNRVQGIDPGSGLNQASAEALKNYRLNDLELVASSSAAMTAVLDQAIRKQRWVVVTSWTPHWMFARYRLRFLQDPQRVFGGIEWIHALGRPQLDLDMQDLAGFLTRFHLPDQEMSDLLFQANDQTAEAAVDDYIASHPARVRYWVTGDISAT

Take `CC(=O)OCC[N+](C)(C)C` [Acetylcholine]: the Kd at ChoX was 145 µM.

Turning to `C[N+](C)(C)CCO` [Choline], the figures for the Kd at TmoX and at ChoX were 3.8 µM and 2.7 µM, respectively.

In the case of `C[N+]1(C)CCC[C@H]1C(=O)[O-]` [proline betaine], the TM shift entry in the experiment on MITS9220_ProX is “approximately 4 °C”; at WH8102_ProX [4], less than 2 °C. Further, the Kd at (UniProt A0A7G8ITR3) (setting [5]) is more than 1000 µM; on OpuAC, 41 µM; at WH8102_ProX [1] (0.50 M NaCl (Buffer A)), 250 ± 80 µM; on ProX [2], 0.05 µM; on ProX [3], 5 µM. Further, the “shifts in observed melting temperatures upon incremental addition of ligand” value at WH8102_ProX [1] (modified DSF, Figure S3) is given as “negligible shifts”.

As for `C[N+](C)(C)CC(=O)[O-]` [glycine betaine], the Kd at (UniProt A0A7G8ITR3) (0.25 M NaCl) was 1.1 µM; on (UniProt A0A7G8ITR3) (setting [5]), 1.2 µM; on (UniProt A0A7G8ITR3) (1.5 M NaCl), 0.52 µM; at WH8102_ProX [1] (0.25 M NaCl), 13 ± 0.5 µM; on WH8102_ProX [1] (0.50 M NaCl (Buffer A)) it was 12 µM; on WH8102_ProX [1] (1.5 M NaCl) it was 13 ± 0.7 µM. Also, the Kd at ProX [2] was 0.06 µM; on ProX [3] it was 1 µM.

For `C[N+](C)(C)CC(O)CC(=O)[O-]` (stereo not shown) [Carnitine], the Kd at OpuAC (dash with footnote b) is more than 10000 µM.

Turning to `O=C(O)[C@@H]1CCCN1` [Proline], the Kd at OpuAC (dash with footnote b) is more than 10000 µM.

Turning to `C[N+](C)(C)[O-]` [Trimethylamine oxide], on TmoX, the Kd was 1.6 µM.
